Experimental data published in patent US20130172424A1, “METHODS AND COMPOSITIONS FOR TREATING DIABETES” (GOLDEN BIOTECHNOLOGY CORPORATION, priority 2011, published 2013).
Where “and” joins values, the source holds several entries; their conditions need not be identical. Equal values may be shown once.

Tested on: diabetes induced by STZ in SD rats
Assay: Treatment of diabetes induced by STZ in rats
Assay type: in vivo, Sprague-Dawley rat
Conditions: Group B (AopE+STZ+Compound 1), individual rats ID 1-4, before meals
Procedure: The effects of exemplary cyclohexnone compound 1 in treating a subject suffering from diabetes were investigated in a Sprague-Dawley rat model over a four week period. The example describes the results of such experiments.
In vivo models. A rat model of diabetes was established by low-dose streptozotocin (STZ, 60 mg/kg) injection in SD rats. Rats of the same batch fed with normal chow (NRC) were used as a control (n=4).
Study group. Group A: diabetes without treatment group, n=6; Group B: AopE+STZ+Compound 1, n=4. […] Rats of Group B (treatment group) have the following blood sugar data before meals: […]

Compound: COC1=C(OC)C(O)C(C/C=C(\C)CC/C=C(\C)CCC=C(C)C)C(C)C1=O (centres unmarked) [Compound 1, 4-hydroxy-2,3-dimethoxy-6-methyl-5-(3,7,11-trimethyldodeca-2,6,10-trienyl)cyclohex-2-enone]
- 2nd week blood sugar level (2nd week): 421 mg/dL and 330 mg/dL and 261 mg/dL and 484 mg/dL
- 4th week Blood sugar level (4th week, untreated diabetic rats about 400-500 mg/dl, control about 100 mg/dl): 147 mg/dL and 149 mg/dL and 89 mg/dL and 388 mg/dL
